{
  "source": "patent US11826321B2",
  "about": "“Cyclobenzaprine treatment for agitation, psychosis and cognitive decline in dementia and neurodegenerative conditions” (TONIX PHARMA HOLDINGS LIMITED, priority 2017, dated 2023)",
  "origin": "cited, not measured here",
  "key": {"[1]": {"settings": "PubMed, NIH Drug Reaction Navigator, Medscape Drug Interaction Checker, Drugs.com"}, "[2]": {"settings": "IR 5 mg TID, 10 doses over 4 days, healthy elderly 62 to 80 years"}, "[3]": {"settings": "IR 5 to 10 mg TID and ER 15 mg BID/QD to 30 mg QD; scale to 3"}, "[4]": {"target": "alpha-adrenergic-1A (α1A) receptor (Homo sapiens, UniProt P35348)", "sequence (P35348 whole entry)": "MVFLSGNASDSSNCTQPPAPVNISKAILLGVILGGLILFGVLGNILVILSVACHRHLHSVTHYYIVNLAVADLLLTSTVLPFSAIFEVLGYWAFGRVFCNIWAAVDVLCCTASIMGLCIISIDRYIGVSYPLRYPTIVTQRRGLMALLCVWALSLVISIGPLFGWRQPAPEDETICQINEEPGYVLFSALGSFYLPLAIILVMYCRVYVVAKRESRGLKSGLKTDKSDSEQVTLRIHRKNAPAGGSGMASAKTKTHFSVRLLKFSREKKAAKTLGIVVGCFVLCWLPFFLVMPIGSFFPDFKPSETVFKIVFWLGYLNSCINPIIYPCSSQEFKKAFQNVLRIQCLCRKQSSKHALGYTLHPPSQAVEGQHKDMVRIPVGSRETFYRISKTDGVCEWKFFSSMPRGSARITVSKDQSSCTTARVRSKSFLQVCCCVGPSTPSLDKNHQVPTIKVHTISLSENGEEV"}, "[5]": {"target": "serotonergic-2A (5-HT2A) receptor (Homo sapiens, UniProt P28223)", "sequence (P28223 whole entry, species assumed)": "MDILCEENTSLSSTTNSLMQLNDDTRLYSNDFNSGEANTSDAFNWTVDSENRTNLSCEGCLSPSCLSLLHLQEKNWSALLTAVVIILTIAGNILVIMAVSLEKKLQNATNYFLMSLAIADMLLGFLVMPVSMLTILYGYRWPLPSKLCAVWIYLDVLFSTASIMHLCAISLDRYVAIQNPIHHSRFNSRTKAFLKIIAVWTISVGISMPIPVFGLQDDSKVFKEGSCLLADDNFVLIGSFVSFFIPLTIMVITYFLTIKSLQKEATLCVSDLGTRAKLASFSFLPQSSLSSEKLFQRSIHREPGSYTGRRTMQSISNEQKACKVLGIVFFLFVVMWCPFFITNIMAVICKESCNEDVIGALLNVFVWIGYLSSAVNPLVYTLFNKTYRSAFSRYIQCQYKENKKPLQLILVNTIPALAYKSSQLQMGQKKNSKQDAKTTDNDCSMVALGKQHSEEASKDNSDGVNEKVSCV"}},
  "data": [
    {"smiles": "CN(C)CCC=C1c2ccccc2C=Cc2ccccc21", "note": "[Cyclobenzaprine, 3-(5H-dibenzola[a,d]cyclohepten-5-ylidene)-N,N-dimethyl-1 propanamine]", "values": [
      {"measurement": "hallucinations reported among patients who took 5 mg TID", "setting": "5 mg TID", "result": "none were reported"},
      {"measurement": "incidence of hallucinations", "setting": "cyclobenzaprine 10 mg, mostly elderly patients", "result": 0.2, "unit": "%"},
      {"measurement": "reports of drug-drug interactions with donepezil, rivastigmine, galantamine, memantine", "setting": "[1]", "result": "did not identify any reports of interactions"},
      {"measurement": "drowsiness and cognitive test performance", "setting": "[2]", "result": "does not appear to cause excessive drowsiness or impair performance on cognitive tasks"},
      {"measurement": "anticholinergic burden scale score", "setting": "[3]", "result": 2},
      {"measurement": "α1A antagonist potency", "setting": "[4]", "result": "potent"},
      {"measurement": "5-HT2A antagonist potency", "setting": "[5]", "result": "potent"}
    ]}
  ]
}
